According to patent publication US20130281313A1, “PROGNOSTIC AND/OR PREDICTIVE BIOMARKERS AND BIOLOGICAL APPLICATIONS THEREOF” (INSTITUT GUSTAVE ROUSSY, priority 2010, published 2013):

Assays:
A549 cells [1] = assay: Transcriptome studies (mRNA microarrays); format: cell-based, human
Method: NSCLC A549 cells were treated with 100 μM CDDP, 75 μM C2-CER or 100 μM CdCl2 for 12 h, or with 50 μM CDDP, C2-CER or CdCl2 for 24 h. Thereafter, cells were collected and lysed for RNA extraction of following established procedures {de La Motte Rouge, 2007}. mRNA expression changes were quantified on G4112A 44 k Whole Human Genome Oligo Microarrays (Agilent Technologies, Santa Clara, USA), as previously reported {Castedo, 2006}. mRNA microarrays underwent standardized post-hybridization processing, image acquisition and analysis (see below) {Castedo, 2006}.
Data from microarray experiments were analyzed with the Rosetta Resolver® System (Rosetta Biosoftware, Seattle, USA). The threshold for statistical significance of probe signals (Intensity) was set at p=10^−5. […] For each mRNA, fold change (FC) was then defined as Intensitysample/Intensitycontrol when Intensitysample>Intensitycontrol, or as—(Intensitycontrol/Intensitysample) when Intensitysample<Intensitycontrol. Ratios were calculated as Intensitysample/Intensitycontrol.

A549 cells [2] = assay: Real-time measurements of cell adherence (impedance); format: cell-based, human; details: 50 μM CDDP alone or with 5 mM PN
Method: 5×10^3 A549 cells were seeded in standard culture conditions on 96-well plates coated with gold microelectrodes (E-plates™, Roche) and let adapt and recover growth for 40 h. Thereafter, cells were treated with 50 μM CDDP alone or in association with 5 mM PN for additional 48 h. Since plating, the adherence of cells to the plate was monitored every 15 min (as a function of plate impedance) by means of an xCELLigence™ Real-Time Cell Analyzer (RTCA, from Roche).
Cell adherence was measured in 3 parallel wells for each experimental condition.
Results are reported as mean cell index (CI) values, which constitute an indication of electrode impedance, ±SEM.

[3] = 12 h, 100 μM CDDP, 75 μM C2-CER or 100 μM CdCl2, vs untreated cells
[4] = 24 h, 50 μM CDDP, C2-CER or CdCl2, vs untreated cells

N.N.[Cl][Pt][Cl] [CDDP, cis-diammineplatinum(II) dichloride] was tested, and the “Fold change, ADAR (NM_001111) transcript” value (A549 cells [1]; [3]) was “n.s”, the “Fold change, ALDH7AT (NM_001182) transcript” value (A549 cells [1]; [3]) was “n.s” and the “Fold change, CD151 (NM_004357) transcript” value (A549 cells [1]; [3]) was “n.s”. The “Fold change, CLIC1 (NM_001288) transcript” value (A549 cells [1]; [3]) was “n.s”, the “Fold change, COMMO9 (NM_014186) transcript” value (A549 cells [1]; [3]) was “n.s” and the “Fold change, COX5B (NM_001802) transcript” value (A549 cells [1]; [3]) was “n.s”. For the same molecule, the “Fold change, COX7C (NM_001867) transcript” value (A549 cells [1]; [3]) was “n.s”, the “Fold change, DHRSX (NM_145177) transcript” value (A549 cells [1]; [3]) was −1.94 and the “Fold change, EBP (NM_006579) transcript” value (A549 cells [1]; [3]) was “n.s”. The “Fold change, EEF2 (NM_001901) transcript” value (A549 cells [1]; [3]) was 1.36, the “Fold change, FDXK (NM_003681) transcript” value (A549 cells [1]; [3]) was −1.77 and the “Fold change, FN3KRP (NM_024619) transcript” value (A549 cells [1]; [3]) was 1.33. For the same molecule, the “Fold change, HDLBP (NM_005336) transcript” value (A549 cells [1]; [3]) was “n.s”, the “Fold change, HGD (NM_000187) transcript” value (A549 cells [1]; [3]) was −1.68 and the “Fold change, IL6R (NM_000565) transcript” value (A549 cells [1]; [3]) was “n.s”. The “Fold change, KHSRP (NM_003685) transcript” value (A549 cells [1]; [3]) was “n.s”, the “Fold change, LOC389727 (NM_372092) transcript” value (A549 cells [1]; [3]) was “n.s” and the “Fold change, MAT2A (NM_005911) transcript” value (A549 cells [1]; [3]) was −1.97. For the same molecule, the “Fold change, MOL1 (NM_021960) transcript” value (A549 cells [1]; [3]) was 2.48, the “Fold change, MPP6 (NM_016447) transcript” value (A549 cells [1]; [3]) was “n.s” and the “Fold change, OSTCL (NM_145303) transcript” value (A549 cells [1]; [3]) was “n.s”. The “Fold change, P5MC5 (NM_002805) transcript” value (A549 cells [1]; [3]) was “n.s”, the “Fold change, PLK1S1 (NM_018474) transcript” value (A549 cells [1]; [3]) was “n.s” and the “Fold change, PPM1J (NM_005167) transcript” value (A549 cells [1]; [3]) was 1.63. The “Fold change, RNF26 (NM_032015) transcript” value (A549 cells [1]; [3]) was “n.s”, the “Fold change, RRAD (NM_004185) transcript” value (A549 cells [1]; [3]) was 6.59 and the “Fold change, SEMA3G (NM_000379) transcript” value (A549 cells [1]; [3]) was −1.58. The “Fold change, SLC22A16AS (NM_007105) transcript” value (A549 cells [1]; [3]) was −1.36, the “Fold change, SOCS6 (NM_004232) transcript” value (A549 cells [1]; [3]) was −1.28 and the “Fold change, TMED1 (NM_006858) transcript” value (A549 cells [1]; [3]) was 1.35. For the same molecule, the “Fold change, TRIP4 (NM_016213) transcript” value (A549 cells [1]; [3]) was −1.64, the “Fold change, UBE2L3 (NM_003347) transcript” value (A549 cells [1]; [3]) was −1.76 and the “Fold change, UBE21 (NM_014176) transcript” value (A549 cells [1]; [3]) was “n.s”. For the same molecule, the “Fold change, W282 (NM_018029) transcript” value (A549 cells [1]; [3]) was “n.s”, the “Fold change, ADAR (NM_001111) transcript” value (A549 cells [1]; [4]) was “n.s” and the “Fold change, ALDH7AT (NM_001182) transcript” value (A549 cells [1]; [4]) was 1.62. For the same molecule, the “Fold change, CD151 (NM_004357) transcript” value (A549 cells [1]; [4]) was −2.13, the “Fold change, CLIC1 (NM_001288) transcript” value (A549 cells [1]; [4]) was “n.s” and the “Fold change, COMMO9 (NM_014186) transcript” value (A549 cells [1]; [4]) was “n.s”. For the same molecule, the “Fold change, COX5B (NM_001802) transcript” value (A549 cells [1]; [4]) was “n.s”, the “Fold change, COX7C (NM_001867) transcript” value (A549 cells [1]; [4]) was “n.s” and the “Fold change, DHRSX (NM_145177) transcript” value (A549 cells [1]; [4]) was −5.40. For the same molecule, the “Fold change, EBP (NM_006579) transcript” value (A549 cells [1]; [4]) was “n.s”, the “Fold change, EEF2 (NM_001901) transcript” value (A549 cells [1]; [4]) was −1.31 and the “Fold change, FDXK (NM_003681) transcript” value (A549 cells [1]; [4]) was −1.44. The “Fold change, FN3KRP (NM_024619) transcript” value (A549 cells [1]; [4]) was 1.25, the “Fold change, HDLBP (NM_005336) transcript” value (A549 cells [1]; [4]) was “n.s” and the “Fold change, HGD (NM_000187) transcript” value (A549 cells [1]; [4]) was −1.50. For the same molecule, the “Fold change, IL6R (NM_000565) transcript” value (A549 cells [1]; [4]) was “n.s”, the “Fold change, KHSRP (NM_003685) transcript” value (A549 cells [1]; [4]) was −2.00 and the “Fold change, LOC389727 (NM_372092) transcript” value (A549 cells [1]; [4]) was “n.s”. For the same molecule, the “Fold change, MAT2A (NM_005911) transcript” value (A549 cells [1]; [4]) was “n.s”, the “Fold change, MOL1 (NM_021960) transcript” value (A549 cells [1]; [4]) was “n.s” and the “Fold change, MPP6 (NM_016447) transcript” value (A549 cells [1]; [4]) was “n.s”. For the same molecule, the “Fold change, OSTCL (NM_145303) transcript” value (A549 cells [1]; [4]) was “n.s”, the “Fold change, P5MC5 (NM_002805) transcript” value (A549 cells [1]; [4]) was “n.s” and the “Fold change, PLK1S1 (NM_018474) transcript” value (A549 cells [1]; [4]) was “n.s”. For the same molecule, the “Fold change, PPM1J (NM_005167) transcript” value (A549 cells [1]; [4]) was “n.s”, the “Fold change, RNF26 (NM_032015) transcript” value (A549 cells [1]; [4]) was “n.s” and the “Fold change, RRAD (NM_004185) transcript” value (A549 cells [1]; [4]) was 3.75. For the same molecule, the “Fold change, SEMA3G (NM_000379) transcript” value (A549 cells [1]; [4]) was “n.s”, the “Fold change, SLC22A16AS (NM_007105) transcript” value (A549 cells [1]; [4]) was −1.34 and the “Fold change, SOCS6 (NM_004232) transcript” value (A549 cells [1]; [4]) was “n.s”. For the same molecule, the “Fold change, TMED1 (NM_006858) transcript” value (A549 cells [1]; [4]) was “n.s”, the “Fold change, TRIP4 (NM_016213) transcript” value (A549 cells [1]; [4]) was “n.s” and the “Fold change, UBE2L3 (NM_003347) transcript” value (A549 cells [1]; [4]) was “n.s”. For the same molecule, the “Fold change, UBE21 (NM_014176) transcript” value (A549 cells [1]; [4]) was “n.s” and the “Fold change, W282 (NM_018029) transcript” value (A549 cells [1]; [4]) was 1.30.
For Cc1ncc(CO)c(CO)c1O [PN, pyridoxine], the “CDDP-induced cell death measured as impedance caused by attached, viable cells” value (A549 cells [2]) was “exacerbated CDDP-induced cell death”.
